Columns and labels:
HiB5 cells = assay: HiB5 neural progenitor cell viability (MTT); type: cell-based
Protocol: Figure 3 Prosurvival effect of VCE-003.2 in hippocampal neural progenitor HiB5 cells. (a,b) HiB5 cells in proliferative and differentiation conditions respectively were incubated with increasing concentrations of VCE-003.2 and cell viability was assessed using the MTT test after 48 h. (c) Cell viability and ERK1/2 phosphorylation status (activation) was determined in VCE-003.2-treated cells in the absence or presence of GW9662 (5 μM). (d) VCE-003.2 time-dependent regulation of the ERK, Akt and mTORC1 signaling pathways were determined by incubation with anti-phospho-ERK, phospho-Akt and phospho-S6 antibodies. Loading control was performed with α-tubulin antibody. Representative western blots and densitometry quantification of three independent experiments are shown. Values are expressed as means ± S.D. *p < 0.05; **p < 0.01 vs. Vehicle; ^#p < 0.05 vs. VCE-003.2.
The HiB5 hippocampal progenitor cell line (kindly provided by Prof. Z. Kokaia, Lund Stem Cell Center, Sweden) was grown as described[46] in DMEM supplemented with 2 mM glutamine, 1% penicillin/streptomycin and 10% (v/v) fetal calf serum (FCS; Lonza, Switzerland). HiB5 cell cultures were incubated in 5% CO2 at 33 °C, the proliferation-permissive temperature of the oncogenic tsA58 allele of the SV40 large T antigen. Incubation at 37 °C loss of proliferative capacity and neural differentiation. Cell viability was determined after 24 h using the 3-[4,5-dimethylthiazol-2-yl]-2,5-diphenyltetrazolium bromide (MTT) […]. Immortalized mouse striatal STHdh cells (kindly provided by S. Gines, U. Barcelona, Spain) were cultured as described. Cell were transiently transfected with 10 μg doxycycline-inducible CFP-huntingtin-94Q using Amaxa´s Nucleofector following the instructions of the manufacturer (Lonza). In addition STHdh^Q7/Q7 and STHdh^Q111/Q111 expressing endogenous levels of full-length huntingtin with 7 glutamines or 111 glutamines in the protein N-terminal domain, respectively, were used. […]

[1] = tested on: QA-induced excitotoxicity in CD1 mice; assay: Intrastriatal QA-induced model of Huntington's disease; type: in vivo
Protocol: Figure 5 Protective action of VCE-003.2 administration in QA-induced excitotoxicity in vivo. (a) CD1 mice were subjected to quinolinic acid (QA) intrastriatal injection and RotaRod performance (fold change) was determined 2 days after lesion in vehicle- and VCE-003.2-treated mice (10 mg/kg). (b) Representative MRI images (Upper panel) and edema volume quantification (lower panel) 5 days after QA injection. Values are expressed as means ± SEM. Sham-Veh and Sham-VCE (n = 7 in each group); QA-Veh (n = 8); QA-VCE (n = 7). **p < 0.01, ***p < 0.001 vs. Vehicle. ^#p < 0.05 vs. QA.
Figure 6 Neuroprotection and attenuation of glial reactivity by VCE-003.2 in QA-induced excitotoxicity in vivo. (a) Representative immunofluorescence images of DARPP32, GFAP, Iba-1 are shown in sham and QA-injected mice treated with vehicle or VCE-003.2 (10 mg/kg). (b) Immunoreactivity of the different markers was quantified with Image J software and referred to the striatal surface analyzed. Values are expressed as means ± SEM. Sham-Veh and Sham-VCE (n = 3); QA-Veh (n = 8); QA-VCE (n = 6). **p < 0.01, ***p < 0.001 vs. QA. Bar size, 200 μm.
Mice were housed under standard conditions (12-h light/dark cycle) in groups with access to food and water ad libitum. All experiments were performed in accordance with European Union guideline and approved by the Animal Research Ethic Committee of Córdoba University (2014PI/017) (3NP model) and by the Animal Research Ethic Committee of Complutense University (CEA-UCM 73/2012) (QA model). Procedures were designed to minimize the number of animals used and their suffering. Excitotoxicity was induced by intrastriatal quinolinic acid (QA) administration (100 nmol in 1 μL PBS solution, unilaterally) as previously described[41] at the following coordinates: +0.6 posterior to bregma, +1.85 medio-lateral and -2.7 dorso-ventral to dura, in 12-week-old CD1 male mice (Harlan Ibérica, Barcelona, Spain). Pharmacological manipulation with VCE-003.2 (10 mg/kg body weight) was performed i.p. daily in 2% Tween 20 and 3% DMSO in saline buffer until sacrifice. Control animals received the corresponding vehicle injections. Motor function was assessed by RotaRod analysis conducted with acceleration from 4 to 40 rpm over a period of 570 s in an LE8200 device (Harvard Apparatus, Barcelona, Spain). […] 3NP-treated animals and their respective non-lesioned controls (injected with PBS) were used for pharmacological studies with VCE-003.2. Treatments consisted of 4 i.p. injections every 24 h with 20 mg/kg VCE-003.2 or vehicle (4% DMSO plus 6,2% Tween 20 in saline buffer), with the first and the last injections 30 min before the first and the last injections of 3NP, respectively. In some experiments, mice received a combination of VCE-003.2 and the PPARγ antagonist T0070907 (5 mg/kg) injected 15 minutes before VCE-003.2. In 3NP-lesioned mice, motor activity, hindlimb clasping, dystonia, and truncal dystonia were evaluated following previously described procedures. All behavioural tests were conducted prior to drug injections to avoid acute effects of the compounds under investigation and all animals were euthanized 12 h after the last injection of 3NP and their brains removed. The right hemispheres were used to dissect the striatum which was frozen in RNAlater (Sigma-Aldrich) and stored at −80 °C for biochemical analyses. […]

[2] = tested on: osteoblast-differentiating MSCs; assay: Osteoblast differentiation of human mesenchymal stem cells; conditions: osteoblastogenic medium, 14 days of differentiation
Text: The Reina Sofia University Hospital Review Board approved this study and the procedures followed were in accordance with the ethical standards of the ethic committee from Hospital Reina Sofía and with the Declaration of Helsinki. Bone marrow donors were recruited by the Haematology Service. All subjects gave their informed consent so that the bone marrow aliquots extracted for clinical purposes could also be used for mesenchymal bone marrow research. […] Adipogenic and osteoblast differentiation was performed as described[22]. Treatment with RZG and VCE-003.2 started at the same time as the differentiation process. […] The images captured with the light microscope were analyzed with the ImageJ Software (NIH; Bethesda, MD, USA).
Cells were collected at day 14 of differentiation and total RNA was extracted using the High Pure RNA Isolation kit (Roche Diagnostics). The total amount of RNA extracted was quantified using NanoDrop 2000 (Thermo Fisher Scientific Inc). Total RNA (1 μg) was retrotranscribed using the iScriptTM cDNA Synthesis Kit (Bio-Rad; Hercules, CA, USA), and the cDNA generated was analyzed by real-time PCR, using the iQ^TM SYBR Green Supermix (Bio-Rad; Hercules, CA, USA). Real-time PCR to quantify the mRNA of osteoblastic and adipocityc markers was performed using a CFX96 Real-time PCR Detection System (Bio-Rad; Hercules, CA, USA). […]

CCCCCC1=C(NCC)C(=O)C(C/C=C(\C)CCC=C(C)C)=C(O)C1=O [VCE-003.2]
cell viability, proliferative conditions (HiB5 cells; HiB5, 50 nM to 50 μM, MTT): not toxic even at the highest concentrations employed | cell viability during neuronal differentiation (HiB5 cells; HiB5, differentiation conditions, increasing concentrations, MTT): exerted a prosurvival activity at lower concentrations, while at high concentrations it was toxic and reduced cell viability | prosurvival action in presence of PPARγ antagonist (HiB5 cells; VCE-003.2 250 nM + GW9662 5 μM): prevented | RotaRod performance ([1]; 2 days after QA injury, 10 mg/kg i.p. daily): reversed | edema volume (MRI) ([1]; 5 days after QA injury, 10 mg/kg): edema volume was not affected | QA-induced DARPP32 neuronal loss ([1]; striatum, 10 mg/kg): prevented QA-induced DARRP32 neuronal loss | microglial activation (Iba-1) ([1]; striatum, 10 mg/kg): prevented QA-induced DARRP32 neuronal loss and microglial activation | reactive astrogliosis (GFAP) ([1]; striatum, 10 mg/kg): tendency to attenuate reactive astrogliosis | expression of osteogenic differentiation markers Runx2, SP7, ALP, IBSP [2]: mild and did not inhibit the expression of osteogenic differentiation markers

— publication PMC4949444 (Scientific Reports, 2016)
